From PMC8007111, “Novel Potent Muscarinic Receptor Antagonists: Investigation on the Nature of Lipophilic Substituents in the 5- and/or 6-Positions of the 1,4-Dioxane Nucleus” (Journal of Medicinal Chemistry, 2020)

What was measured:
hM1 mAChR = target: T1, hM1 mAChR (Homo sapiens, UniProt P11229); test: [3H]NMS inhibition radioligand binding, hM1 in CHO-K1 cell membranes; details: for pKi hM1 / Ki: [3H]NMS, CHO-K1 cell membranes, mean ± S.E.M.; for Ki: read-out: pKi hM1 (converted)
T1 construct: expressed in transfected cells; host or cells: CHO-K1 (membrane preparation)
T1 sequence (P11229 1-460): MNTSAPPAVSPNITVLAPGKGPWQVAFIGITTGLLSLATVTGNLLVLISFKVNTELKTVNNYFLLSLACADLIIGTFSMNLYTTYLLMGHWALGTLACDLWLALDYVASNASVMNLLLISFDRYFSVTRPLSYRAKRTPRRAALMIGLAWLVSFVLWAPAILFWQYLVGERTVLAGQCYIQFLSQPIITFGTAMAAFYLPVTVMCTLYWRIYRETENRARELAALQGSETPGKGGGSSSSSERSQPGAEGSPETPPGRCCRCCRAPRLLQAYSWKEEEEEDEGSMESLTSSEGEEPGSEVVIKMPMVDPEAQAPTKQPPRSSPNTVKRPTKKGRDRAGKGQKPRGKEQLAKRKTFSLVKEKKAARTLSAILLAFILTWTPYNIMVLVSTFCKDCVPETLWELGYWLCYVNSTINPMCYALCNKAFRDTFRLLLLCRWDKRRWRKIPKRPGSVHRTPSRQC
Experimental: (§1) CHO-K1 cells stably transfected with the human muscarinic receptor subtypes (hM1–5) were grown in Dulbecco’s modified Eagle’s medium (DMEM) with nutrient mixture F12 (DMEM/F12, 50/50), containing 10% fetal bovine serum, penicillin (100 U/mL), streptomycin (100 U/mL), L-glutamine (4 mM), and geneticin (G-418, 50 μg/mL) at 37 °C in a 5% CO2 humidified incubator. […] Serum (0.7 mL) was added to inactivate the trypsin, and the cells were spun down by centrifuging at 300g for 5 min. The cells were then resuspended in ice-cold 25 mM sodium phosphate buffer containing 5 mM MgCl2, pH 7.4 (binding buffer) and homogenized using a cell disrupter (Ultra-Turrax, setting 3, 30 s). The homogenate was sedimented by centrifugation (17,000g, 15 min). The supernatant was discarded, and the resulting membrane pellets were resuspended with Ultra-Turrax in the same buffer to give a final protein concentration of 1–2 mg/mL. The protein content was determined by the method of Bradford (1976) with bovine serum albumin (Sigma) as a standard and stored at −80 °C.
(§2) Inhibition radioligand binding assays were conducted as previously described[48],[49] with 0.2 nM [^3H]NMS in binding buffer in a final volume of 250 μL. Nonspecific binding was defined in the presence of 10 μM atropine. Briefly, membrane fractions (about 25–70 μg/mL of protein) were incubated with radioligand and unlabeled test compounds for 2 h at r.t. Bound and free radioactivity were separated by filtering the assay mixture through UniFilter GF/B plates using a FilterMate Cell Harvester (PerkinElmer Life and Analytical Science). The filter bound radioactivity was counted by a TopCount NXT Microplate Scintillation Counter (PerkinElmer Life and Analytical Science). Data (cpm) were normalized to percentage-specific binding and analyzed using a four-parameter logistic equation in GraphPad Prism 5.02; IC50 values were determined, and Ki values were calculated.[59]

hM5 mAChR = target: T2, hM5 mAChR (Homo sapiens, UniProt P08912); test: [3H]NMS inhibition radioligand binding, hM5 in CHO-K1 cell membranes; details: for pKi hM5 / Ki: [3H]NMS, CHO-K1 cell membranes, mean ± S.E.M.; for Ki: read-out: pKi hM5 (converted)
T2 construct: expressed in transfected cells; host or cells: CHO-K1 (membrane preparation)
T2 sequence (P08912 1-532): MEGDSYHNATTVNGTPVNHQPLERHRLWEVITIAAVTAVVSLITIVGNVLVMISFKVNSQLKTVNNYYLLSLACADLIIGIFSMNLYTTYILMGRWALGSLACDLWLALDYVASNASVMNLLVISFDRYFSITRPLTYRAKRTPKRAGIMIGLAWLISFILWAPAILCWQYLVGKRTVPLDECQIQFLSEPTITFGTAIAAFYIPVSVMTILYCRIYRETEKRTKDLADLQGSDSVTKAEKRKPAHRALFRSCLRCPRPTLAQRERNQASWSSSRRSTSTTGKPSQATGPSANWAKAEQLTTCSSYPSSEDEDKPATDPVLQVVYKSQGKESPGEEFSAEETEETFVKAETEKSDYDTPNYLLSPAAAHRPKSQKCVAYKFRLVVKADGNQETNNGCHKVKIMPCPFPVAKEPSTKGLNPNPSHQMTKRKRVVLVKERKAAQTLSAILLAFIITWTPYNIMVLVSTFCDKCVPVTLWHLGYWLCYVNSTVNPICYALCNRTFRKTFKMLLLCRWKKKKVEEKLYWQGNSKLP
Experimental: as §1, §2

hM3 mAChR = target: T3, hM3 mAChR (Homo sapiens, UniProt P20309); test: [3H]NMS inhibition radioligand binding, hM3 in CHO-K1 cell membranes; details: for pKi hM3 / Ki: [3H]NMS, CHO-K1 cell membranes, mean ± S.E.M.; for Ki: read-out: pKi hM3 (converted)
T3 construct: expressed in transfected cells; host or cells: CHO-K1 (membrane preparation)
Experimental: as §1, §2

hM4 mAChR = target: T4, hM4 mAChR (Homo sapiens, UniProt P08173); test: [3H]NMS inhibition radioligand binding, hM4 in CHO-K1 cell membranes; details: for pKi hM4 / Ki: [3H]NMS, CHO-K1 cell membranes, mean ± S.E.M.; for Ki: read-out: pKi hM4 (converted)
T4 construct: expressed in transfected cells; host or cells: CHO-K1 (membrane preparation)
T4 sequence (P08173 1-479): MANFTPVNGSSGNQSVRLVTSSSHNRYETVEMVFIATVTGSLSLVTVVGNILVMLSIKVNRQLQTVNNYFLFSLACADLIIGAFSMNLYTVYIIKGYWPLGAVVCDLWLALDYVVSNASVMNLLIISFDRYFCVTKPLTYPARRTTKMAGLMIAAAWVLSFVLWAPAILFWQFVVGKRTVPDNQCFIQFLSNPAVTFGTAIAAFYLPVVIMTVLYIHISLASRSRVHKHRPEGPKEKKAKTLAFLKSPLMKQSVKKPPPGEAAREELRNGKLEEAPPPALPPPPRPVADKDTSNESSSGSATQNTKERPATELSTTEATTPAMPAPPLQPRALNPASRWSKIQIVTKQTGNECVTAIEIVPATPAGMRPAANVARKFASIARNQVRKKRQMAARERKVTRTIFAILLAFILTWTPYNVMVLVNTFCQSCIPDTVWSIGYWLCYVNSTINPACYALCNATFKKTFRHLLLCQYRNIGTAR
Experimental: as §1, §2

hM2 mAChR = target: T5, hM2 mAChR (Homo sapiens, UniProt P08172); test: [3H]NMS inhibition radioligand binding, hM2 in CHO-K1 cell membranes; details: for pKi hM2 / Ki: [3H]NMS, CHO-K1 cell membranes, mean ± S.E.M.; for Ki: read-out: pKi hM2 (converted)
T5 construct: expressed in transfected cells; host or cells: CHO-K1 (membrane preparation)
T5 sequence (P08172 1-466): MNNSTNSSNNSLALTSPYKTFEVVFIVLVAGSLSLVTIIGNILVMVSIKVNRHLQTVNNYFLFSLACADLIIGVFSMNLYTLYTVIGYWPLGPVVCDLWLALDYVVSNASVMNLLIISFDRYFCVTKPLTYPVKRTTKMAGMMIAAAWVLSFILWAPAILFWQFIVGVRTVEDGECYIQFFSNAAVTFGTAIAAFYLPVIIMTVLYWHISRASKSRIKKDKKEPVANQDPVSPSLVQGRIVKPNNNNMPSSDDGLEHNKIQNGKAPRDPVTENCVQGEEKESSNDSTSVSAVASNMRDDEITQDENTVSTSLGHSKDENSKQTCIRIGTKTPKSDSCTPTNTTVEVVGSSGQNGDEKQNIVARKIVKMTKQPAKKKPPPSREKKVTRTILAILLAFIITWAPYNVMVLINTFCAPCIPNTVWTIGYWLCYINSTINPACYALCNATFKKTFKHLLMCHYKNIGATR
Experimental: as §1, §2

T3 sequence (P20309 whole entry): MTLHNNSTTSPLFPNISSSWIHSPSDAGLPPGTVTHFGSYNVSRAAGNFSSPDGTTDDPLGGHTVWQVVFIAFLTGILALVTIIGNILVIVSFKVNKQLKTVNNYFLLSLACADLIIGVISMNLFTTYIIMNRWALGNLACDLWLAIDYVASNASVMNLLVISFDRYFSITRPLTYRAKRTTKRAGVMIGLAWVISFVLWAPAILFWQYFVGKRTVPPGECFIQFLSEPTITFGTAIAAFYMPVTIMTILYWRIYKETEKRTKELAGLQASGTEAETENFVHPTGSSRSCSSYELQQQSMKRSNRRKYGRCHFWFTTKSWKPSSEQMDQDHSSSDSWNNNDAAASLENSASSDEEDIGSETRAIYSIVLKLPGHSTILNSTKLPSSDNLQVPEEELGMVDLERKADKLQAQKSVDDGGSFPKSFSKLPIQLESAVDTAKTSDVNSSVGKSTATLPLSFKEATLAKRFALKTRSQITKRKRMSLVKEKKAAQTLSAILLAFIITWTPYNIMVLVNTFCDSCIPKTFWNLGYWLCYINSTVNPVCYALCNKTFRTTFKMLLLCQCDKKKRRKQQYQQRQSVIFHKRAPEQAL

Compound	pKi hM1 (hM1 mAChR)	pKi hM5 (hM5 mAChR)	pKi hM3 (hM3 mAChR)	pKi hM4 (hM4 mAChR)	pKi hM2 (hM2 mAChR)	ER (eudismic ratio) hM1 (hM1 mAChR; eutomer vs distomer)	ER (eudismic ratio) hM5 (hM5 mAChR; eutomer vs distomer)	ER (eudismic ratio) hM3 (hM3 mAChR; eutomer vs distomer)	ER (eudismic ratio) hM4 (hM4 mAChR; eutomer vs distomer)	ER (eudismic ratio) hM2 (hM2 mAChR; eutomer vs distomer)	Ki (hM1 mAChR) [nM]	Ki (hM5 mAChR) [nM]	Ki (hM3 mAChR) [nM]	Ki (hM4 mAChR) [nM]	Ki (hM2 mAChR) [nM]
C[N+](C)(C)C[C@@H]1CO[C@H](c2ccc([S+]([O-])c3ccccc3)cc2)CO1.[I-] (relative stereo) [16a, 1-((2R*,5R*)-5-(4-(Phenylsulfinyl)phenyl)-1,4-dioxan-2-yl)-N,N,N-trimethylmethanaminium Iodide]	<5	5.21 ± 0.08	<5	<5	5.52 ± 0.02										
C[N+](C)(C)C[C@@H]1CO[C@H](C(c2ccccc2)c2ccccc2)CO1.[I-] (relative stereo) [12a, 1-((2R*,5R*)-5-Benzhydryl-1,4-dioxan-2-yl)-N,N,N-trimethylmethanaminium Iodide]	6.28 ± 0.08	5.49 ± 0.06	5.77 ± 0.03	5.60 ± 0.06	5.87 ± 0.09										
C[N+](C)(C)C[C@@H]1CO[C@@H](c2ccccc2)CO1.[I-] (relative stereo) [9b, 1-((2R*,5S*)-5-Phenyl-1,4-dioxan-2-yl)-N,N,N-trimethylmethanaminium Iodide]	<5	<5	<5	<5	<5										
C[N+](C)(C)C[C@@H]1CO[C@H](c2ccccc2)[C@@H](c2ccccc2)O1.[I-] (relative stereo) [18b, 1-((2R*,5R*,6R*)-5,6-Diphenyl-1,4-dioxan-2-yl)-N,N,N-trimethylmethanaminium Iodide]	6.30 ± 0.09	5.52 ± 0.08	5.81 ± 0.10	5.40 ± 0.09	5.65 ± 0.09										
CN(C)C[C@H]1COC[C@@](c2ccccc2)(C2CCCCC2)O1 [(2S,6S)-(−)-33b]	9.10 ± 0.28	8.83 ± 0.10	9.02 ± 0.10	9.09 ± 0.15	8.10 ± 0.10	26	47	195	120	9					
C[N+](C)(C)C[C@@H]1CO[C@@](c2ccccc2)(C2CCCCC2)CO1.[I-] (relative stereo) [11a, 1-((2R*,5R*)-5-Cyclohexyl-5-phenyl-1,4-dioxan-2-yl)-N,N,N-trimethylmethanaminium Iodide]	8.01 ± 0.06	7.45 ± 0.08	7.43 ± 0.09	7.15 ± 0.09	7.26 ± 0.08										
C[N+](C)(C)C[C@@H]1COC(c2ccccc2)C(c2ccccc2)(c2ccccc2)O1 (stereo in doubt) [19b, 1-((2R*,5R*)-5,6,6-Triphenyl-1,4-dioxan-2-yl)-N,N,N-trimethylmethanaminium Iodide]											550	1450	1100	1170	2140
C[N+](C)(C)C[C@@H]1COC[C@@H](c2ccc([S+]([O-])c3ccccc3)cc2)O1.[I-] (relative stereo) [7b, 1-((2R*,6R*)-6-(4-(Phenylsulfinyl)phenyl)-1,4-dioxan-2-yl)-N,N,N-trimethylmethanaminium Iodide]	5.17 ± 0.08	5.74 ± 0.16	5.88 ± 0.14	5.42 ± 0.02	6.38 ± 0.10										
C[N+](C)(C)C[C@@H]1CO[C@@H](c2ccc(Sc3ccccc3)cc2)CO1.[I-] (relative stereo) [15b, 1-((2R*,5S*)-5-(4-(Phenylthio)phenyl)-1,4-dioxan-2-yl)-N,N,N-trimethylmethanaminium Iodide]	5.57 ± 0.07	5.40 ± 0.15	5.35 ± 0.06	5.14 ± 0.01	5.86 ± 0.04										
C[N+](C)(C)C[C@@H]1CO[C@H](c2ccccc2)CO1.[I-] (relative stereo) [9a, 1-((2R*,5R*)-5-Phenyl-1,4-dioxan-2-yl)-N,N,N-trimethylmethanaminium Iodide]	5.63 ± 0.07	<5	5.14 ± 0.10	5.10 ± 0.07	5.06 ± 0.10										
C[N+](C)(C)C[C@@H]1CO[C@@H](c2ccc([S+]([O-])c3ccccc3)cc2)CO1.[I-] (relative stereo) [16b, 1-((2R*,5S*)-5-(4-(Phenylsulfinyl)phenyl)-1,4-dioxan-2-yl)-N,N,N-trimethylmethanaminium Iodide]	5.17 ± 0.09	5.72 ± 0.15	5.88 ± 0.14	5.42 ± 0.02	6.38 ± 0.10										
C[N+](C)(C)C[C@@H]1CO[C@@H](c2ccc(-c3ccccc3)cc2)CO1.[I-] (relative stereo) [13b, 1-((2R*,5S*)-5-([1,1′-Biphenyl]-4-yl)-1,4-dioxan-2-yl)-N,N,N-trimethylmethanaminium Iodide]	<5	<5	<5	<5	5.49 ± 0.02										
C[N+](C)(C)CC1COC(c2ccccc2)(c2ccccc2)CO1 (stereo not shown) [compound 10, 1-(5,5-Diphenyl-1,4-dioxan-2-yl)-N,N,N-trimethylmethanaminium Iodide]											36.3	158	135	155	178
